Laboratory results as given in ChEMBL document CHEMBL6074662, “Antibacterial, Antibiofilm, and Anti-inflammatory Effects of a Novel Thrombin-Derived Peptide in Sepsis Models: Insights into Underlying Mechanisms” (J Med Chem, 2024).
The source made the active and inactive calls. The calls are words filed in the database; no cut-off is given here.

Columns and labels:
Escherichia coli = test: Antibacterial activity against Escherichia coli KCTC 1682 assessed as zone of clearance incubated for 4 hrs in presence of trypsin by radical diffusion assay; format: functional, organism-based
[1] = Proteolytic stability of compound assessed as trypsin (unknown origin)-mediated drug degradation at 150 uM incubated for 24 hrs by RP-HPLC analysis; format: ADME; details: human
Staphylococcus aureus = test: Synergistic bactericidal activity against methicillin-resistant Staphylococcus aureus CCARM 3089 at 0.5 to 2 uM incubated for 12 hrs in presence of oxacillin by time-kill assay; format: functional, organism-based; details: dose 0.5-2 µM
[2] = Effect on secondary structure of drug in LPS assessed as formation of left-handed alpha-helical conformation at 150 uM by CD analysis; format: physicochemical
Pseudomonas aeruginosa = test: Synergistic bactericidal activity against multidrug-resistant Pseudomonas aeruginosa CCARM 2095 at 0.5 to 2 uM incubated for 12 hrs in presence of oxacillin by time-kill assay; format: functional, organism-based; details: dose 0.5-2 µM
RAW264.7 [3] = test: Anti-inflammatory activity in mouse RAW264.7 cells assessed as decrease in LPS-induced NO production upto 10 uM pretreated for 1 hr followed by LPS treatment for 16 hrs by Griess assay; format: functional, cell-based; details: time 17.0 hrs
Lipopolysaccharide (LPS) = test: Displacement of BODIPY-TR-cadaverine from cell-free LPS (unknown origin) at 8 uM incubated for 30 mins by fluorescence based assay relative to control
RAW264.7 [4] = test: Inhibition of cell binding activity of FITC-labeled LPS to surface receptors of mouse RAW264.7 cells at 8 uM incubated for 1 hr by flow cytometry; format: cell-based
RAW264.7 [5] = test: Displacement of FITC-labeled LPS pre-bound to surface receptors of mouse RAW264.7 cells incubated for 1 hr by flow cytometry; format: cell-based
[6] = target: Toll-like receptor 4 (Homo sapiens) (UniProt O00206); test: Inhibition of LPS-induced human TLR4 activation expressed in HEK-Blue hTLR4 cells assessed as decrease in SEAP activity at 12.5 uM pretreated for 1 hr followed by LPS treatment for 16 hrs by absorbance based assay relative to control; format: cell-based; details: time 17.0 hrs
Chain of Toll-like receptor 4 (Homo sapiens) (O00206 whole entry): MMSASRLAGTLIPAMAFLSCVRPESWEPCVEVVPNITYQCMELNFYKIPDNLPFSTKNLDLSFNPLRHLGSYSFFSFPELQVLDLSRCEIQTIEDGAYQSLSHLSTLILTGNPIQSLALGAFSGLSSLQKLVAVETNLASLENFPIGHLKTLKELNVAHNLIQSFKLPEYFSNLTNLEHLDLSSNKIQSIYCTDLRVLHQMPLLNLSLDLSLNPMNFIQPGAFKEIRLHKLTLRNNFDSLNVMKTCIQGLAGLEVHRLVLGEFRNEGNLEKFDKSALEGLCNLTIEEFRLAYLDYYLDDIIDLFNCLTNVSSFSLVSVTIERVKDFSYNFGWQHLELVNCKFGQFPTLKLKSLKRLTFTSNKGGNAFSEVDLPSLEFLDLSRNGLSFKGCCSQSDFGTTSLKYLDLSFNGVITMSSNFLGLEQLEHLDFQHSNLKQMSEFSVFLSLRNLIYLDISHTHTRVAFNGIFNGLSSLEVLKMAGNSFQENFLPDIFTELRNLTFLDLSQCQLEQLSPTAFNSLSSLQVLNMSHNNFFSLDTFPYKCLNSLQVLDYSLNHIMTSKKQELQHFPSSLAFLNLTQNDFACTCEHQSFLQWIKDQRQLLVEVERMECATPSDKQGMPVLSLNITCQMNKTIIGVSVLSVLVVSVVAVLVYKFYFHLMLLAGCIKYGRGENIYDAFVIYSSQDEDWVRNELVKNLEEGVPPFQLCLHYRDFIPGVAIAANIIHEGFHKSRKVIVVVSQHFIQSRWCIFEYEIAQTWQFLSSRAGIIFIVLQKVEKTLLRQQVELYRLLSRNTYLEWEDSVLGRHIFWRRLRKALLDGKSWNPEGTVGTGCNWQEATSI

[7] = target: T1, Toll-like receptor 4 (Mus musculus) (UniProt Q9QUK6); test: Inhibition of LPS-induced TLR4 activation in mouse RAW264.7 cells assessed as decrease in p38 MAPK phosphorylation at 2 uM pretreated for 1 hr followed by LPS treatment for 30 mins by Western blot analysis relative to control; format: cell-based; details: time 90.0 min
T1 sequence (whole entry): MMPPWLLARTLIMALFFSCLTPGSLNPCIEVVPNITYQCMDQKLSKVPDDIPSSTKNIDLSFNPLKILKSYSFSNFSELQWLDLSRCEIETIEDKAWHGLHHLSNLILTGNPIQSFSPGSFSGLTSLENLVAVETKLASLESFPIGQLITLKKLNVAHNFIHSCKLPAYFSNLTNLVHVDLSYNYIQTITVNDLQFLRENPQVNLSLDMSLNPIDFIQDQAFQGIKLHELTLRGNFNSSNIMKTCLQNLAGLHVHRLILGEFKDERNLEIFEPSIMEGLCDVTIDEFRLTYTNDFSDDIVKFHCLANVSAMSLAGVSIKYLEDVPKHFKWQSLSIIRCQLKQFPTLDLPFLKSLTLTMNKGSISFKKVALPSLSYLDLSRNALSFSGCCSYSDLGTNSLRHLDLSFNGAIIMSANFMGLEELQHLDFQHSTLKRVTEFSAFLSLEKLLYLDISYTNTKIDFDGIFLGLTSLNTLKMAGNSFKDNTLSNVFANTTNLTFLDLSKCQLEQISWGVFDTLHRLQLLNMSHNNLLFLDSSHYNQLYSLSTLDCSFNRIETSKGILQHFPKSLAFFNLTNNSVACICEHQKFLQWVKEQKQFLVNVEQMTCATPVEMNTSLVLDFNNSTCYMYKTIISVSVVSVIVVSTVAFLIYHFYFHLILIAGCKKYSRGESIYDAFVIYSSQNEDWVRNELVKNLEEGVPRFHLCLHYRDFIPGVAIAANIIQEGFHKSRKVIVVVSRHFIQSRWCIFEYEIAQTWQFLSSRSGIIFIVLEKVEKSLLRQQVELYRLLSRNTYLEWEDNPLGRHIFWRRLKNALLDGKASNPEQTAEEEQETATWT

Acinetobacter baumannii = test: Antibacterial activity against carbapenem-resistant Acinetobacter baumannii-induced sepsis shock in ICR mouse model assessed as bacterial growth inhibition in lung at 1 mg/kg, ip pretreated with compound for 1 hr followed by bacterial infection measured after 16 hrs relative to control; format: functional; details: time 17 hrs
Mus musculus [8] = test: (§1) Antiseptic activity in sepsis shock ICR mouse model infected with carbapenem-resistant Acinetobacter baumannii assessed as decrease in endotoxin level in serum at 1 mg/kg, ip pretreated with compound for 1 hr followed by bacterial infection measured after 16 hrs relative to control; format: functional; parameters: scale not given: the % may be the effect or the level left; details: time 17 hrs
Mus musculus [9] = test: Antiseptic activity in sepsis shock ICR mouse model infected with carbapenem-resistant Acinetobacter baumannii assessed as decrease in IL-6 level in serum at 1 mg/kg, ip pretreated with compound for 1 hr followed by bacterial infection measured after 16 hrs relative to control; format: functional; parameters: scale not given: the % may be the effect or the level left; details: time 17 hrs
Mus musculus [10] = test: Antiseptic activity in sepsis shock ICR mouse model infected with carbapenem-resistant Acinetobacter baumannii assessed as decrease in IL-1beta level in serum at 1 mg/kg, ip pretreated with compound for 1 hr followed by bacterial infection measured after 16 hrs relative to control; format: functional; parameters: scale not given: the % may be the effect or the level left; details: time 17 hrs
Mus musculus [11] = test: Antiseptic activity in sepsis shock ICR mouse model infected with carbapenem-resistant Acinetobacter baumannii assessed as decrease in AST level in serum at 1 mg/kg, ip pretreated with compound for 1 hr followed by bacterial infection measured after 16 hrs relative to control; format: functional; parameters: scale not given: the % may be the effect or the level left; details: time 17 hrs
Mus musculus [12] = test: as §1, with “recovery of neutrophil infiltration” for “decrease”, “lungs” for “endotoxin level in serum”, “by H and E staining based analysis” for “relative to control”; format: functional, organism-based; details: time 17.0 hrs
Mus musculus [13] = test: Antiseptic activity in sepsis shock ICR mouse model infected with carbapenem-resistant Acinetobacter baumannii assessed as reduction in bacterial count in lungs at 1 mg/kg, ip pretreated with compound for 3 hrs followed by bacterial infection measured after 16 hrs relative to control; format: functional; parameters: scale not given: the % may be the effect or the level left; details: time 19 hrs
Mus musculus [14] = test: Antiseptic activity in sepsis shock ICR mouse model infected with carbapenem-resistant Acinetobacter baumannii assessed as reduction in bacterial count in kidney at 1 mg/kg, ip pretreated with compound for 1 hr followed by bacterial infection measured after 16 hrs relative to control; format: functional; parameters: scale not given: the % may be the effect or the level left; details: time 17 hrs
Mus musculus [15] = test: Antiseptic activity in sepsis shock ICR mouse model infected with carbapenem-resistant Acinetobacter baumannii assessed as reduction in serum IL-6 level at 1 mg/kg, ip pretreated with compound for 1 hr followed by bacterial infection measured after 16 hrs relative to control; format: functional; parameters: scale not given: the % may be the effect or the level left; details: time 17 hrs

In the case of H-GVFRLKKWIKKVIKKWGK-NH2, the Activity (Escherichia coli) is reported as “inactive”, the Stability [1] is reported as “Unstable” and the Activity (Staphylococcus aureus) is reported as “Active”.
For H-GVFRLKKWLKKVKKWGK-NH2, the Activity [2] was “Active”, the Activity (Pseudomonas aeruginosa) was “Active” and the Activity (RAW264.7 [3]) was “Active”. For the same substance, the Activity (Lipopolysaccharide (LPS)) was 56%, the inhibition (RAW264.7 [4]) was “Active; Activity Comparable To Ll-37 And Pmb” and the Activity (RAW264.7 [5]) was “Active; Activity Similar To Ll-37”. For the same substance, the inhibition [6] was 92.1%, the inhibition [7] was 63% and the inhibition in vivo at 1 mg/kg (Acinetobacter baumannii) was 96.5%. It also gave an Activity (Mus musculus [8]) of over 56.1%, an Activity (Mus musculus [9]) of 86.3% and an Activity (Mus musculus [10]) of 68.7%. The Activity (Mus musculus [11]) was 31.8%, the Activity (Mus musculus [12]) was “Active” and the Activity (Mus musculus [13]) was 98%. It also gave an Activity (Mus musculus [14]) of 99.6% and an Activity (Mus musculus [15]) of 100%.
